# How the values were obtained:
# IL-8 = IL-8 production by LPS-stimulated neutrophils (ELISA); type: cell-based, human; details: LPS 100 ng/mL, 24 h, % of stimulated control
# Description: (§1) Peripheral venous blood was taken from healthy human donors (20–35 years old) in the Warsaw Blood Donation Centre. […] The study conformed to the principles of the Declaration of Helsinki. Neutrophils were isolated using a standard method of dextran sedimentation prior to hypotonic lysis of erythrocytes and to centrifugation in a Ficoll Hypaque gradient. The purity of neutrophil preparations was >97 %, and viability measured by trypan blue exclusion was >98 %. Neutrophils were then resuspended in appropriate medium to perform the selected assay.
# (§2) Neutrophils (2 × 10^5/mL) were cultured in 24-well plates in RPMI 1640 medium with 10 % FBS, 10 mM HEPES, and 2 mM L-glutamine in the absence or presence of LPS (100 ng/mL) for 24 h at 37 °C with 5 % CO2 in the absence or presence of extract at concentrations of 1, 5 and 20 μg/mL, and compounds at concentrations of 1, 5 and 20 μM were added to 1 mL of cell suspension 1 h before the stimuli. After 24 h, the neutrophils were harvested and centrifuged (2000 RPM; 10 min; 4 °C). The amount of IL-8 or MMP-9 released into cell supernatants was measured by enzyme-linked immunosorbent assay (ELISA) following the manufacturer’s instructions (R&D Systems, Minneapolis, MN, USA). PBS was used as a non-stimulated control. Curcumin was used as a positive control, according to Aggarwal and Harikumar and Antoine et al..
# MMP-9 = MMP-9 production by LPS-stimulated neutrophils (ELISA); type: cell-based, human; details: LPS 100 ng/mL, 24 h, % of stimulated control
# Description: as §1, §2
# elastase = assay: Elastase release from cytochalasin A/f-MLP-stimulated neutrophils (SAAVNA substrate); type: cell-based, human; details: for Elastase release Mean(%): % of stimulated control; for activity on elastase release: tested concentrations (1, 5, 20 μM)
# Description: as §1
# Neutrophil elastase release was determined using SAAVNA as a substrate, and […] was measured spectrophotometrically. 100 μL of cell suspension (5 × 10^5/mL) in HBSS was preincubated with 50 μL of compound or extract solution (final concentrations of 1, 5 and 20 μM or μg/mL) for 15 min at 37 °C and then stimulated with 50 μL of cytochalasin A (5 μg/mL) and f-MLP (0.1 μg/mL) for 15 min. The neutrophils were centrifuged (2000 rpm; 10 min; 4 °C). After the addition of 50 μL of SAAVNA solution (1.6 mg/mL) to 100 μL of supernatant, the extent of […] was measured spectrophotometrically for 1 h at intervals of 20 min, at 412 nm using a microplate reader (BioTek). According to Kanashiro et al., quercetin was used as a positive control.
# MPO = MPO release from cytochalasin A/f-MLP-stimulated neutrophils (TMB substrate); type: cell-based, human; details: for MPO release Mean(%): cytochalasin A/f-MLP, % of stimulated control; for activity on MPO release: all tested concentrations (1, 5, 20 μM)
# Description: Peripheral venous blood was taken from healthy human donors (20-35 years old) in the Warsaw Blood Donation Centre. […] The study conformed to the principles of the Declaration of Helsinki. Neutrophils were isolated using a standard method of dextran sedimentation prior to hypotonic lysis of erythrocytes and to centrifugation in a Ficoll Hypaque gradient. The purity of neutrophil preparations was >97 %, and viability measured by trypan blue exclusion was >98 %. Neutrophils were then resuspended in appropriate medium to perform the selected assay. Neutrophil MPO release was determined using TMB as a substrate. […] After centrifugation (2000 rpm; 10 min; 4 °C), 100 μL of supernatant was incubated with 50 μL of the TMB liquid substrate system. The reaction was terminated after 20 min by the addition of 2 M hydrochloric acid. The absorbance was measured at […] using a microplate reader (BioTek). Gallic acid was used as a positive control, according to Kroes et al..
# ROS [1] = assay: ROS release from f-MLP-stimulated neutrophils, luminol chemiluminescence; type: cell-based, human; details: % of stimulated control
# Description: as §1
# (§3) Generation of oxidants by f-MLP or PMA-stimulated neutrophils was measured using luminol- or lucigenin-dependent chemiluminescence tests. 70 μL of cell suspension (2 × 10^5/mL) in HBSS was incubated with 50 μL of compound or extract solution (final concentrations of 1, 5 and 20 μM or μg/mL) together with 50 μL of luminol (100 μM) or lucigenin (200 μM) solution. ROS production was initiated by the addition of 30 μL of f-MLP (0.1 μg/mL) or PMA (1 μg/mL). Changes in chemiluminescence at 37 °C were measured immediately for 45 min at intervals of 2 min in a microplate reader (Biotek). Ascorbic acid was used as a positive control.
# ROS [2] = assay: ROS release from PMA-stimulated neutrophils, lucigenin chemiluminescence; type: cell-based, human; details: PMA + lucygenin, % of stimulated control
# Description: as §1, §3
# [3] = target: T1, bovine testis hyaluronidase (Bos taurus, UniProt Q2YDK3); assay: Hyaluronidase activity, USP turbidimetric method modified; type: biochemical; details: for Hyaluronidase activity Mean(%): % of 100% active enzyme control
# T1 construct: purchased Sigma–Aldrich GmbH (Steinheim, Germany); host or cells: bovine testis
# T1 sequence (Q2YDK3 36-553): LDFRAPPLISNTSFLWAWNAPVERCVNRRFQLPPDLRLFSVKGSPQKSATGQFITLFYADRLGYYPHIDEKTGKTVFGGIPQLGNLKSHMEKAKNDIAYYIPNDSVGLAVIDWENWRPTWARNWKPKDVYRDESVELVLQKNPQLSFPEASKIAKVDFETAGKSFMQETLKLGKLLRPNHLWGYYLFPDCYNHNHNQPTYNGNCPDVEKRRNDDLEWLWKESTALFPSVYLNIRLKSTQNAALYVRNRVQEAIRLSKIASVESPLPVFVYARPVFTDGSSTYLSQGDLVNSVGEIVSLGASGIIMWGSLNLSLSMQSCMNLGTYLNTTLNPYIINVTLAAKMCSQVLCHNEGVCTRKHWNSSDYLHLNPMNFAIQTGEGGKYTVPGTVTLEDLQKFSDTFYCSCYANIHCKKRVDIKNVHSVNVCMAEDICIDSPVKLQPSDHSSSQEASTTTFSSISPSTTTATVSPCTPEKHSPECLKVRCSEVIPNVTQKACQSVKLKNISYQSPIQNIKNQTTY
# Description: The […] flowering herb was collected from its natural habitat in Umer in the Świętokrzyskie region (Poland) in July 2011. Its identity was confirmed anatomically and morphologically based on its pharmacopoeial monograph in the Department of Pharmacognosy and Molecular Basis of Phytotherapy, Medical University of Warsaw, where the voucher specimen UMER2011 is deposited. […] […]), castalagin ([…] (SB) and […]. 1, 2) from […] performed according to Piwowarski and Kiss. […] Isolated ellagitannins were of >95 % purity (determined by the HPLC-DAD-CAD method). […] Gallic acid (>96 % purity) was purchased from ChromaDex (Santa Ana, USA). Propidium iodide was purchased from BD Biosciences (San Diego, CA, USA). All substances used were of >95 % purity. Phosphate-buffered saline (PBS) was purchased from Gibco (Carlsbad, CA, USA). The influence of extract and ellagitannins on hyaluronidase activity was measured using the USP turbidimetric method modified by Piwowarski et al. […] Heparin was used as a positive control.
# [4] = system: ethanol-induced gastric lesions; set-up: method as in PMID 12590500; details: mouse; orally 50 mg/kg b.w.; cited from earlier work
Structure (SMILES),IL-8 production Mean (%) (IL-8; 1 μM),IL-8 production Mean (%) (IL-8; 5 μM),IL-8 production Mean (%) (IL-8; 20 μM),MMP-9 production Mean (%) (MMP-9; 1 μM),MMP-9 production Mean (%) (MMP-9; 5 μM),MMP-9 production Mean (%) (MMP-9; 20 μM),Elastase release Mean(%) (elastase; 1 μM),Elastase release Mean(%) (elastase; 5 μM),Elastase release Mean(%) (elastase; 20 μM),MPO release Mean(%) (MPO; 1 μM),MPO release Mean(%) (MPO; 5 μM),MPO release Mean(%) (MPO; 20 μM),ROS release Mean(%) (ROS [1]; 1 μM),ROS release Mean(%) (ROS [1]; 5 μM),ROS release Mean(%) (ROS [1]; 20 μM),ROS release Mean(%) (ROS [2]; 1 μM),ROS release Mean(%) (ROS [2]; 5 μM),ROS release Mean(%) (ROS [2]; 20 μM),IC50 [3] [µM],Hyaluronidase activity Mean(%) ([3]; 1 μM),also measured
"O=C1OC[C@H]2OC(=O)c3cc(O)c(O)c(O)c3-c3c(O)c(O)c(O)c4c3C(=O)O[C@H]([C@H]3OC(=O)c5c-4c(O)c(O)c(O)c5[C@H]3O)[C@@H]2OC(=O)c2cc(O)c(O)c(O)c2-c2c1cc(O)c(O)c2O [C, castalagin]","92,43%","75,24%","70,24%","92,70%","88,18%","96,42%","96,55%","102,40%","105,22%","75,53%","56,44%","29,85%","62,41%","40,10%","29,55%","79,28%","60,48%","37,00%",3.1 ± 0.2,"87,07%","activity on elastase release (elastase): completely inactive; activity on MPO release (MPO): expressed inhibitory activity at all tested concentrations; Hyaluronidase activity Mean(%) ([3]; 2 μM): 73,08%; Hyaluronidase activity Mean(%) ([3]; 5 μM): 19,92%; Hyaluronidase activity Mean(%) ([3]; 20 μM): 3,13%; reduction of ethanol-induced gastric lesions [4]: very potent in the reduction of ethanol-induced gastric lesions"
"O=C(OC1COC(=O)c2cc(O)c(O)c(O)c2-c2c(cc(O)c(O)c2O)C(=O)OC1C1OC(=O)c2cc(O)c(O)c(O)c2-c2c(O)c(O)c(O)c3c2C(=O)OC1C3O)c1cc(O)c(O)c(O)c1Oc1cc2c(c(O)c1O)-c1c(cc(O)c(O)c1O)C(=O)OCC1OC(=O)c3cc(O)c(O)c(O)c3-c3c(O)c(O)c(O)c4c3C(=O)OC(C1OC2=O)C1OC(=O)c2c-4c(O)c(O)c(O)c2C1O (centres unmarked) [SC, salicarinin C]","77,70%","78,29%","56,68%","97,74%","92,17%","86,61%","85,10%","80,91%","50,60%","66,67%","52,85%","5,95%","63,16%","34,71%","18,92%","66,62%","34,56%","7,37%",2.5 ± 0.2,"81,82%","Hyaluronidase activity Mean(%) ([3]; 2 μM): 57,68%; Hyaluronidase activity Mean(%) ([3]; 5 μM): 8,00%; Hyaluronidase activity Mean(%) ([3]; 20 μM): 0,50%"
"O=C1OCC2OC(=O)c3cc(O)c(O)c(O)c3-c3c(O)c(O)c(O)c4c3C(=O)OC(C2OC(=O)c2cc(O)c(O)c(O)c2-c2c1cc(O)c(O)c2O)C1OC(=O)c2c-4c(O)c(O)c(O)c2C1O (centres unmarked) [V, vescalagin]","98,64%","80,63%","71,68%","85,96%","99,57%","89,91%","102,25%","104,61%","102,89%","81,67%","65,70%","41,17%","63,47%","46,61%","30,13%","66,84%","50,90%","28,93%",3.1 ± 0.2,"88,10%","activity on elastase release (elastase): completely inactive; activity on MPO release (MPO): expressed inhibitory activity at all tested concentrations; Hyaluronidase activity Mean(%) ([3]; 2 μM): 68,10%; Hyaluronidase activity Mean(%) ([3]; 5 μM): 18,39%; Hyaluronidase activity Mean(%) ([3]; 20 μM): 5,10%"

# Source: article PMC4544630, “Contribution of C-glucosidic ellagitannins to Lythrum salicaria L. influence on pro-inflammatory functions of human neutrophils” (Journal of Natural Medicines, 2014)
